For 32 compounds, logP and solubility results are on record in the OPERA property sets (Mansouri et al. 2018).

For orientation: logP means the decadic logarithm of the partition coefficient of the neutral form, usually between octanol and water. Read a high logP as higher lipophilicity. Usually solubility stands for the concentration that dissolves in the medium under given conditions. Lower therefore signals little dissolved substance.

For the data set the following is noted: for solubility: 22 °C.

In brackets after ≈: the same amount, converted by molar mass.

Regarding `CC(=O)Oc1ccccc1C(=O)OCCN(C)C(C)=O`, the logP is 1.46.

Turning to `CCCCN(CCCC)C(=O)COC(=O)c1ccccc1`, the solubility came to 275 µM (≈ 80 µg/mL).

`CCN(CC)C(=O)C(C)OC(=O)c1ccccc1` (stereo not drawn) returned a logP of 2.3.

The compound `CCCNC(=O)COC(=O)c1ccccc1` registered a logP of 1.88 and a solubility of 2890 µM (≈ 640 µg/mL).

The compound `CN(C)C(=O)COC(=O)c1ccccc1` yielded a solubility of 42500 µM (≈ 8800 µg/mL).

With `O=C(OCC(=O)N1CCOCC1)c1ccccc1`, the solubility is 16900 µM (≈ 4200 µg/mL).

`O=C(OCC(=O)N1CCC(O)CC1)c1ccccc1` displayed a logP of 0.63 and a solubility of 44800 µM (≈ 11800 µg/mL).

In turn, `O=C(OCC(=O)N1CCCCCC1)c1ccccc1` registered a solubility of 2870 µM (≈ 750 µg/mL).

Consider `CC(C)(C)NC(=O)COC(=O)c1ccccc1`, for which the logP was 2.26 and the solubility was found to be 1360 µM (≈ 320 µg/mL).

In the case of `CCCCNC(=O)COC(=O)c1ccccc1`, the logP came to 2.36 and the solubility came out at 1740 µM (≈ 410 µg/mL).

For `CC(C)NC(=O)COC(=O)c1ccccc1`, the logP worked out at 1.73 and the solubility was 1850 µM (≈ 410 µg/mL).

On to `CCCC(=O)OCOC(=O)c1ccccc1OC(C)=O`, for which the logP is 2.5.

In turn, `CCN(CC)C(=O)COC(=O)c1ccccc1` showed a solubility of 8500 µM (≈ 2000 µg/mL).

On to `CC(NC(=O)COC(=O)c1ccccc1)C(N)=O` (stereo not drawn), for which the log partition coefficient (logP) is 0.42.

In turn, `CCCOC(=O)n1c(-c2cscn2)nc2ccccc21` had a logP of 2.98.

Regarding `C=CCN(CC=C)C(=O)COC(=O)c1ccccc1`, the solubility amounted to 2740 µM (≈ 710 µg/mL).

As to `CCNC(=O)COC(=O)c1ccccc1`, the logP turned out to be 1.28 and the solubility was 5790 µM (≈ 1200 µg/mL).

Turning to `CC(=O)N(C)C(=O)COC(=O)c1ccccc1`, the logP was found to be 1.58 and the solubility turned out to be 1360 µM (≈ 320 µg/mL).

Consider `CCCCCCNC(=O)COC(=O)c1ccccc1`, for which the log partition coefficient (logP) was 2.81 and the solubility was determined as 125 µM (≈ 33 µg/mL).

Compound `CC(=O)NC(=O)COC(=O)c1ccccc1` yielded a logP of 1.24 and a solubility of 3980 µM (≈ 880 µg/mL).

In turn, `C[C@H](NC(=O)COC(=O)c1ccccc1)C(N)=O` registered a solubility of 1920 µM (≈ 480 µg/mL).

As to `CCCCCCN(C)C(=O)COC(=O)c1ccccc1`, the logP turned out to be 2.99.

For the compound `O=C(COC(=O)c1ccccc1)NC(CO)(CO)CO`, the logP turned out to be 0.25.

As for `CNC(=O)COC(=O)c1ccccc1`, the logP is 0.99 and the solubility is 19200 µM (≈ 3700 µg/mL).

`O=C(OCC(=O)N1CCCCC1)c1ccccc1`: the solubility was found to be 3150 µM (≈ 780 µg/mL).

On to `O=C(OCC(=O)N1CCC1C(=O)O)c1ccccc1` (stereo not drawn), for which the log partition coefficient (logP) was 0.79.

For `CC(=O)N(C)CCOC(=O)c1ccccc1`, the logP was found to be 1.24.

`NC(=O)C1CCCN1C(=O)COC(=O)c1ccccc1` (stereo not drawn): the logP worked out at 0.2.

`NC(=O)COC(=O)c1ccccc1`: the logP was 0.69 and the solubility is 22900 µM (≈ 4100 µg/mL).

Compound `CC(O)CN(CC(C)O)C(=O)COC(=O)c1ccccc1` (stereo not drawn) displayed a log partition coefficient (logP) of 0.66.

Compound `CCCCCCN(CCCCCC)C(=O)COC(=O)c1ccccc1` displayed a logP of 6.53.

As for `COCCN(CCOC)C(=O)COC(=O)c1ccccc1`, the logP amounted to 1.28.
